Test results: patent publication US10611797B2, “Peptide having anticancer activity, and pharmaceutical composition and dietary supplement composition for preventing and treating cancer, both of which contain same as active ingredient” (IUCF-HYU (INDUSTRY-UNIVERSITY COOPERATION FOUNDATION …, priority 2015, dated 2020)

How the values were obtained:
[1] = tested on: A431 human epidermoid carcinoma cell line tumors; assay: Mouse model transplanted with A431 epidermoid carcinoma cell line; type: in vivo; details: 1.7 and 3.5 mg/kg, tail vein, every other day, five times, day 13
Experimental: (§1) After the tumors were weighed, the tumors and the major organs were stained with 4% formaldehyde. Tissue slices were prepared through paraffin section and stained with hematoxylin/eosin. Acquired data were statistically analyzed using the Excel program.

[2] = tested on: MEL cell line; assay: Cell cycle analysis by FACS, MEL; type: cell-based, mouse; details: 0, 1, 2, 3, 10 μM, 48 h
Experimental: (§2) 5×10^5 cells of each of MEL, K562, MCF-10A, and MDA-MB-231 cell lines were inoculated into 100 mm dishes. 24 h after inoculation, cells were treated with Peptide 5-2C such that the final concentrations were 0, 1, 2, 3, and 10 μM. 48 h after Peptide 5-2C treatment, cells were collected by trypsin treatment. Thereafter, 1×10^6 cells were suspended in 0.5 ml PBS and dissociated into single cells by pipetting. The cell suspension was transferred to a centrifugal tube containing 4.5 ml of 70% ethanol and allowed to stand at 4° C. for 2 h to immobilize the cells. A cell sediment was obtained by centrifugation, washed with 5 ml of PBS solution, sufficiently suspended in 1 ml of PI staining solution, and stained in the dark for 30 min. Cell fluorescence was measured in BD FACSAria and cell cycle was analyzed using the software provided from the same company.

[3] = tested on: CP2c; assay: Luciferase reporter assay of CP2c transcriptional activity in 293T cells; type: cell-based, human; details: 2 μM, 48 h, wild-type CP2c binding sites, compared with FQI1
Experimental: 293T cells were inoculated into a 12-well plate at a density of 1×10^5 cells/well. 12 h after inoculation, cells were transfected with combinations of a reporter vector (the wild-type reporter links the enhancer sequence of the GATA-1 gene including twice repeated CP2c-binding sites to the upstream of the luciferase gene and Mut 1/3, Mut 2/4, and Mut 1-4 reporters cause mutations of the CP2c binding sites present in the enhancer sequence) and various Flag-CP2c, HA-CP2b, and HA-PIAS1 expression vectors by using the effectene method. After 1-h culture, cells were treated with FQI1, Peptide 5C, and Peptide 5-2C at concentrations of 2 μM, followed by 48-h culture. Cells were harvested and lysed in 250 μl of passive cell lysis buffer (Promega) to obtain an extract. 20 μl of the cell extract and a dual-luciferase assay kit (Promega) were used to measure the activity of the labeled luciferase gene in GLOMAX (Promega) (the expression of each expression vector was confirmed by Western blotting).

[4] = tested on: MCF7 cell line; assay: Western blotting of cell cycle-related marker proteins in MCF7; type: cell-based, human; details: 2 μM for 0-72 h; 1, 2, 3 μM for 48 h
Experimental: 1×10^5 cells of MCF7 breast cancer cell line were inoculated into a 6-well plate. 24 h after inoculation, cells were treated with Peptide 5-2C at a final concentration of 2 μM. After 0, 24, 48, and 72 h, cell extracts were collected in the same manner as in Example 6. Western blotting was performed using various antibodies against cell cycle-related marker genes. On the other hand, cell extracts were obtained from the groups treated with Peptide 5-2C at final concentrations of 1, 2, and 3 μM for 48 h and Western blotting was performed in the same manner.

[5] = tested on: normal cell lines (MCF10A, BEAS2B, hMSCs, mouse primary T cells)
Experimental: (§3) Liver cancer cell lines (HepG2, Hep3B), a human embryonic kidney cell line (293T), breast cancer cell lines (MCF-7, MDA-MB-231), blood tumor cell lines (K562, HEL, HL60), glioblastoma cell lines (U251, U373MG, U87MG), a mammary epithelial cell line (MCF10A), a lung epithelial cell line (BEAS2B), human mesenchymal stem cells (hMSCs), and mouse primary T cells (resting and activated T cells) were inoculated into 96-well plates at a density of 3,000 cells/well, supplemented with 50 μl of culture solution, and cultured at 37° C. and 5% CO2 for 1 h. […] After completion of the culture, cells were observed under an inverted phase contrast microscope and their morphological changes were imaged.

[6] = tested on: MCF-7, 293T, MDA-MB-231 mammospheres; assay: Mammosphere culture of cancer cell lines, microscopy; type: cell-based, human; details: 2 μM, 4 days
From the text: Cancer cell lines (MCF-7, 293T, MDA-MB-231) were inoculated at a density of 1×10^4 cells/ml into polyHEMA-coated 100 phi Petri dishes. […] Cells were observed under an inverted phase contrast microscope once a day and their morphological changes were imaged. […] Mammosphere culture of cancer cell lines is known to increase the number of cancer stem cells.

[7] = tested on: glioblastoma cell lines (U343, U373MG, U251, U87MG); assay: IC50 of Peptide 5-2C over time in glioblastoma cell lines; type: cell-based, human; details: one-time treatment
Experimental: After one-time treatment of various glioblastoma cell lines (U343, U373MG, U251, and U87MG) with Peptide 5-2C, IC50 values were measured with time using the Graph Prism Pad 6 program.

[8] = tested on: MDA-MB-231 cell line (LM1 cells) tumors and lung metastasis; assay: Mouse model transplanted with MDA-MB-231 (LM1) breast cancer cell line; type: in vivo
Experimental: as §1, with “The collected blood was subjected to a fundamental CBC using a Coulter LH 750 Hematology analyzer. After” for “After”

[9] = tested on: human embryonic kidney cancer cell line (293T); assay: MTT cell viability, 293T; type: cell-based; details: 0-10 μM, 24-96 h
Experimental: (§4) Liver cancer cell lines (HepG2, Hep3B) were inoculated into 96-well plates at a density of 3000 cells/well, and then 50 μl of culture solution was added thereto. Cells were cultured at 37° C. and 5% CO2 for 1 h. […] Cells were cultured at 37° C. and 5% CO2 for 24, 48, 72, and 96 h. After completion of the culture, the remaining culture solution was removed from the well plates, the cultures were diluted with MTT solution (3-(4,5-dimethylthiazol-2-yl)-2,5-diphenyltetrazole bromide) to a final density of 500 μg/ml, and cells were cultured at 37° C. and 5% CO2 for 3 h. The remaining MTT solution was removed and 150 μl of dimethyl sulfoxide (DMSO) was added. The reaction was carried out at room temperature for 20 min. After completion of the reaction, absorbance was measured using a microplate reader.

[10] = tested on: MCF-10A cell line; assay: Cell cycle analysis by FACS, MCF-10A; type: cell-based, human; details: 0, 1, 2, 3, 10 μM, 48 h
Experimental: as §2

[11] = tested on: human mesenchymal stem cells (hMSC)
[12] = tested on: MDA-MB-231 cell line; assay: Electron microscopy of cell morphology, MDA-MB-231; type: cell-based, human; details: 2 μM, 24 and 48 h
From the text: The collected cells were washed once with physiological saline.

[13] = tested on: breast cancer cell lines (MCF7, MDA-MB-231); assay: MTT cell viability, breast cancer cell lines; type: cell-based, human; details: 0-10 μM, 24-96 h
Experimental: as §4

[14] = tested on: human blood cancer cell lines (K562, HEL, HL60); assay: MTT cell viability, human blood cancer cell lines; type: cell-based; details: 0-10 μM, 24-96 h
Experimental: as §4

[15] = tested on: liver cancer cell lines (HepG2, Hep3B); assay: MTT cell viability, liver cancer cell lines; type: cell-based, human; details: 0-10 μM, 24-96 h
Experimental: as §4

[16] = tested on: human embryonic stem cell line (H9) and co-cultured cells; assay: Microscopy of human embryonic stem cell line (H9) in co-culture; type: cell-based
Experimental: Two colonies of a human embryonic stem cell line (H9) per well were inoculated into 96-well plates on which normal embryonic epithelial cells or embryonic epithelial cells fluorescently stained with rhodamine were plated, followed by culture for 24 h.

[17] = tested on: CD34+ hematopoietic progenitor cells (HPCs); assay: Microscopy of hematopoietic progenitor cells and cells differentiating into erythrocytes; type: cell-based, human; details: up to 10 μM, 72 h; days 3, 7, 14 of differentiation
Experimental: Cells were observed under an inverted phase contrast microscope and their morphological changes were imaged. The CD34+ hematopoietic progenitor cells were cultured in IMDM media containing 1% BSA. For differentiation induction into erythrocytes, cells were cultured with EPO, SCF, IL-3, and hydrocortisone for the first 7 days, and thereafter, cultured in media supplemented with EPO, SCF, and IL-3 only.

[18] = tested on: MCF10A cell line
Experimental: 1.5×10^6 cells of MDA-MB-231 cell line and 5×10^5 cells of MCF10A cell line were inoculated into 100 mm dishes. […] After culture for 24 and 48 h, cells were collected. The culture solution was centrifuged and surface adherent cells were collected by trypsin treatment. The collected cells were washed once with physiological saline. The cell sediment was directly treated twice with 2.5% aqueous glutaraldehyde solution (each for 10 min). Samples for electron microscopy were prepared and imaged in accordance with general methods.

[19] = tested on: cancer cell lines (HepG2, Hep3B, 293T, MCF-7, MDA-MB-231, K562, HEL, HL60, U251, U373MG, U87MG); assay: Microscopic observation of growth inhibition and apoptosis, cancer cell lines; type: cell-based, human; details: 2 μM, 48 h
Experimental: as §3

[20] = tested on: glioblastoma cell lines (U251, U87MG, U343); assay: MTT cell viability, glioblastoma cell lines; type: cell-based, human; details: 0-10 μM, 24-96 h
Experimental: as §4

[21] = tested on: human embryonic stem cells (hESCs, H9)
From the text: MEF cells labeled with rhodamine were often used to distinguish them from hESC-derived cells.

[22] = tested on: K562 cell line and MDA-MB-231 cell line; assay: Cell cycle analysis by FACS, K562 and MDA-MB-231; type: cell-based, human; details: 0, 1, 2, 3, 10 μM, 48 h
Experimental: as §2

[23] = tested on: U343 glioblastoma cell line tumors; assay: Mouse model transplanted with U343 glioblastoma cell line; type: in vivo; details: 3 mg/kg directly into tumor sites every three days, day 70, vs physiological saline
Experimental: U343 glioblastoma cell line (2.5×10^6 cells/50 μl) was injected subcutaneously into the backs of 5-week-old male BALB/C nude mice (n=6/group), Peptide 5-2C (3 mg/kg) was directly injected into the tumor sites every three days from the time when the tumor sizes increased to about 8 mm^2, the body weights of the mice and the volumes of the tumors were measured, the mice were sacrificed on day 70 after the peptide injection, and the tumors, blood, and major organs were excised. The tumor sizes were measured using a vernier calipers and the tumor volumes were calculated by (major axisxminor axis^2)/2. Peripheral blood was collected from the ophthalmic artery of each mouse using a microcapillary coated with EDTA and stored in a sample tube coated with 5.4 mg EDTA. The tumors and the major organs were excised by dissection. The collected blood was subjected to a fundamental complete blood cell count (CBC) using a Coulter LH 750 Hematology analyzer. After the tumors were weighed, the tumors and the major organs were stained with 4% formaldehyde. Tissue slices were prepared through paraffin section and stained with hematoxylin/eosin. Acquired data were statistically analyzed using the Excel program.

[24] = 1.7 and 3.5 mg/kg, tail vein, every three days, five times, day 30, vs control

## NYPQRPCRGDKGPDC [Peptide 5-2C, Ac-NYPQRPCRGDKGPDC-Amide]
[1]
  histologic/anatomic characteristics of the major organs: no significant changes in the histologic/anatomic characteristics of the major organs
  reduction of tumor volume: ≥ 70%
  reduction of tumor weight: ≥ 60%
[2]
  number of cells in subG1 phase in MEL: the number of cells in the subG1 phase was significantly increased only at high concentrations
[3]
  CP2c-mediated transcriptional activity (luciferase reporter): effectively inhibit CP2c-mediated transcriptional activity compared to FQI1
[4]
  expression of cell cycle-related marker proteins: the expressions of Cyclin E, p21, and p53 increased gradually and the expressions of CDK1 and Cyclin B1 decreased gradually
[5]
  effect on normal cell lines (microscopy): without substantially affecting the normal cell lines
[6]
  formation of mammospheres and cell growth: the formation of mammospheres was effectively inhibited and cell growth was decreased
[7]
  IC50 at 48 h compared with 96 h: the IC50 values after 48 h were similar to those after 96 h
[8]; [24]
  reduction of number of tumor foci metastasized to the lung: ~50%
  reduction of tumor weights: ~30%
[8]; control tumor mice had twice the number of normal mice
  number of leukocytes: close to the normal value
[9]
  relative viability (MTT), 293T, compared with FQI1: inhibited the growth of the glioblastoma cell lines and induced apoptosis similarly to FQI1
[10]
  cell cycle changes in MCF-10A: no substantial changes in cell cycle were observed
[11]
  cytotoxicity (MTT) in hMSC: no substantial cytotoxicity even at high concentrations
[12]
  intracellular structural abnormalities in MDA-MB-231 (electron microscopy): significantly different intracellular structural abnormalities were observed in the Peptide 5-2C-treated group compared to in the FQI1-treated group
[13]
  relative viability (MTT), breast cancer cell lines, compared with FQI1: more effectively inhibited the growth of the breast cancer cell lines and induced apoptosis than FQI1
[14]
  relative viability (MTT), K562, HEL, HL60, compared with FQI1: slightly effectively inhibited the growth of the glioblastoma cell lines and induced apoptosis compared to FQI1
[15]
  relative viability (MTT), liver cancer cell lines, compared with FQI1: more effectively inhibited the growth of the liver cancer cell lines and induced apoptosis than FQI1
[16]
  death of embryonic stem cells and co-cultured cells: none of the embryonic stem cells and the co-cultured cells died
[17]
  growth inhibition and apoptosis of HPCs and cells differentiating into erythrocytes (microscopy): growth inhibition and apoptosis of the cells were not observed
[18]
  intracellular structural abnormalities in MCF10A (electron microscopy): no intracellular structural abnormalities were observed
[19]
  growth inhibition and apoptosis induction of cancer cell lines (microscopy): specifically inhibited the growth of the cancer cell lines and induced apoptosis
[20]
  relative viability (MTT), glioblastoma cell lines, compared with FQI1: more effectively inhibited the growth of the glioblastoma cell lines and induced apoptosis than FQI1
[21]
  cytotoxicity (MTT) in hESCs: no substantial cytotoxicity even at high concentrations
[22]
  cell cycle phase distribution in K562 and MDA-MB-231: the number of cells in the S phase was decreased, the number of cells in the G2/M phase was increased, and an increase in the number of cells in the subG1 phase was dependent on the concentration of Peptide 5-2C
[23]
  body weight, major CBC indices, histologic/anatomic characteristics of major organs: there were no differences in the weight of the mice, the major CBC indices of the mice, and the histologic/anatomic characteristics of the major organs
  reduction of tumor volume: ~60%
  reduction of tumor weight: ~60%
